10 molecules from patent US20210269440A1 (BETTA PHARMACEUTICALS CO., LTD, priority 2018, published 2021) can be followed below.

The structures appear in SMILES notation. pIC50: −log10 of the molar value.

The assay deals with T1, PD-1/PD-L1 protein/protein interaction (Homo sapiens, UniProt Q9NZQ7).
T1 construct: Recombinant human PD-L1 protein (19-238) with a His-tag at the C-terminus; purchased AcroBiosystems PD1-H5229 (PD-L1); PD1-H5257 (PD-1)
T1 sequence (Q9NZQ7 19-238): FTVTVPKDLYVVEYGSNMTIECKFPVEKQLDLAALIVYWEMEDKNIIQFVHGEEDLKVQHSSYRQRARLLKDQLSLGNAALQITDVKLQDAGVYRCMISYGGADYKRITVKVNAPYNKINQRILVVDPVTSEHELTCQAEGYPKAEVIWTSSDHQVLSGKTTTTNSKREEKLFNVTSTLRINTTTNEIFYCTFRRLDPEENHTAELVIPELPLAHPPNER
The experiment in a line: PD-1/PD-L1 homogenous time-resolved fluorescence (HTRF) binding assay. The protocol: Resolved Fluorescence (HTRF) Binding Assay
The assays were conducted in a standard black 384-well polystyrene plate with a final volume of […]. Inhibitors were first serially diluted in DMSO and then added to the plate wells before the addition of other reaction components. The final concentration of DMSO in the assay was 1%. The assays were carried out at 25° C. in the PBS buffer (pH 7.4) with 0.05% Tween-20 and 0.1% BSA. […] Plates were centrifuged and proteins were preincubated with inhibitors for 40 min. The incubation was followed by the addition of 10 μL of HTRF detection buffer supplemented with Europium cryptate-labeled anti-human IgG (PerkinElmer-AD0212) specific for Fc and anti-His antibody conjugated to SureLight®—Allophycocyanin (APC, PerkinElmer-AD0059H). After centrifugation, the plate was incubated at 25° C. for 60 min. […] Final concentrations in the assay were […] PD1, 10 nM PD-L1, 1 nM europium anti-human IgG and 20 nM anti-His-Allophycocyanin. IC50 determination was performed by fitting the curve of percent control activity versus the log of the inhibitor concentration using the GraphPad Prism 5.0 software.
A general note: TR-FRET usually uses a lanthanide donor and a delayed reading to cut background.
Molecule `Cc1c(COCCN2CCOCC2)cccc1-c1cccc(Nc2nccc3cc(CN4CCCCC4C(=O)O)cnc23)c1C` (stereo not shown) [Compound 47, 1-((8-((2,2′-dimethyl-3′-((2-morpholinoethoxy)methyl)-[1,1′-biphenyl]-3-yl)amino)-1,7-naphthyridin-3-yl)methyl)piperidine-2-carboxylic acid] had a pIC50 above 8.70. `Cc1c(NCCCN2CCOCC2)cccc1-c1cccc(Nc2nccc3cc(CN4CCCCC4C(=O)O)cnc23)c1C` (stereo not shown) [Compound 48, 1-((8-((2,2′-dimethyl-3′-((3-morpholinopropyl)amino)-[1,1′-biphenyl]-3-yl)amino)-1,7-naphthyridin-3-yl)methyl)piperidine-2-carboxylic acid]: the negative-log IC50 (pIC50) is 8.00 to 8.70. In turn, `Cc1c(NC(=O)CCN2CCOCC2)cccc1-c1cccc(Nc2nccc3cc(CN4CCCCC4C(=O)O)cnc23)c1C` (stereo not shown) [Compound 49, 1-((8-((2,2′-dimethyl-3′-(3-morpholinopropanamido)-[1,1′-biphenyl]-3-yl)amino)-1,7-naphthyridin-3-yl)methyl)piperidine-2-carboxylic acid] had a negative-log IC50 (pIC50) of 8.00 to 8.70. Then `Cc1c(Nc2nccc3cc(CN4CCCCC4C(=O)O)cnc23)cccc1-c1cccc(N(C)C(=O)CCN2CCOCC2)c1C` (stereo not shown) [Compound 50, 1-((8-((2,2′-dimethyl-3′-(N-methyl-3-morpholinopropanamido)-[1,1′-biphenyl]-3-yl)amino)-1,7-naphthyridin-3-yl)methyl)piperidine-2-carboxylic acid], with below 6.82; and `Cc1c(NC(=O)NCCNCCO)cccc1-c1cccc(Nc2nccc3cc(CN4CCCCC4C(=O)O)cnc23)c1C` (stereo not shown) [Compound 51, 1-((8-((3′-(3-(2-((2-hydroxyethyl)amino)ethyl)ureido)-2,2′-dimethyl-[1,1′-biphenyl]-3-yl)amino)-1,7-naphthyridin-3-yl)methyl)piperidine-2-carboxylic acid], with below 6.82; and `Cc1c(Nc2nccc3cc(CN4CCCCC4C(=O)O)cnc23)cccc1-c1cccc(N(C)CCCN2CCOCC2)c1C` (stereo not shown) [Compound 52, 1-((8-((2,2′-dimethyl-3′-(methyl(3-morpholinopropyl)amino)-[1,1′-biphenyl]-3-yl)amino)-1,7-naphthyridin-3-yl)methyl)piperidine-2-carboxylic acid], with below 6.82. As to `Cc1c(NC(=O)NCCN2CCOCC2)cccc1-c1cccc(Nc2nccc3cc(CN4CCCCC4C(=O)O)cnc23)c1C` (stereo not shown) [Compound 53, 1-((8-((2,2′-dimethyl-3′-(3-(2-morpholinoethyl)ureido)-[1,1′-biphenyl]-3-yl)amino)-1,7-naphthyridin-3-yl)methyl)piperidine-2-carboxylic acid], the pIC50 was below 6.82. In the case of `Cc1c(Nc2nccc3cc(CN4CCCCC4C(=O)O)cnc23)cccc1-c1cccc(OCC2(CN3CCOCC3)CC2)c1C` (stereo not shown) [Compound 54, 1-((8-((2,2′-dimethyl-3′-((1-(morpholinomethyl)cyclopropyl)methoxy)-[1,1′-biphenyl]-3-yl)amino)-1,7-naphthyridin-3-yl)methyl)piperidine-2-carboxylic acid] it was 8.00 to 8.70; in that of `Cc1c(Nc2nccc3cc(CN4CCCCC4C(=O)O)cnc23)cccc1-c1cccc(OC(C)CCN2CCOCC2)c1C` (stereo not shown) [Compound 55, 1-((8-((2,2′-dimethyl-3′-((4-morpholinobutan-2-yl)oxy)-[1,1′-biphenyl]-3-yl)amino)-1,7-naphthyridin-3-yl)methyl)piperidine-2-carboxylic acid], 8.00 to 8.70; in that of `Cc1c(Nc2nccc3cc(CN4CCCCC4C(=O)O)cnc23)cccc1-c1cccc2c1CCC2OCCN1CCOCC1` (stereo not shown) [Compound 56, 1-((8-((2-methyl-3-(1-(2-morpholinoethoxy)-2,3-dihydro-1H-inden-4-yl)phenyl)amino)-1,7-naphthyridin-3-yl)methyl)piperidine-2-carboxylic acid], below 6.82.

A word on the pIC50: it is −log10 of the IC50, conventionally taken in molar units. Higher therefore signals a small IC50.
